# Results published in patent publication US20240252581A1, “COMPOSITIONS AND METHODS FOR TREATING RESPIRATORY DISTRESS” (S.I.S. SHULOV INNOVATIVE SCIENCE LTD., priority 2021, published 2024).
# Square brackets hold non-standard residues; d marks the D form. Peptide text beside a SMILES is read from it. * marks the point of attachment. pGlu = O=C1CC[C@@H](C(=O)O)N1; Octanoyl = CCCCCCCC(=O)*
# Experiment: Toxicity of ZEP3Na in intratracheal administration, daily for 14 days
# Format: in vivo, rats
# Procedure: The toxicological effect of ZEP3Na administered intratracheally to rats was evaluated. Doses of 0.5, 1.0, and 2.5 mg ZEP3Na dissolved in saline were administered daily into the lungs for a period of 14 days. On day 15, necroscopy and histology of brain, heart, thymus, lungs, spleen, liver, kidneys, and gonads were performed. In addition, blood cell counts and chemistry parameters were counted. Also, the cell distribution (%) of the bronchial alveolar lavage fluid (BALF) was determined by FACS instrumentation for B cells, T cells, neutrophils, and macrophages.
# [1] = rats, 0.5, 1.0, and 2.5 mg intratracheally daily for 14 days
smiles,measurement,setting,value
"CCCCCCCC(=O)NCCCC[C@H](NC(=O)[C@H](Cc1c[nH]c2ccccc12)NC(=O)[C@H](CC(N)=O)NC(=O)[C@@H]1CCC(=O)N1)C(=O)O [ZEP3Na, pGlu-Asn-Trp-Lys(Octanoyl)-ONa] ([pGlu]NWK(Octanoyl)-OH)",blood counts and chemistry,[1],comparable to the reference items
same,body weight,[1],remained similar to that of the control group
same,mortality or abnormal signs of behavior,[1],No mortality or abnormal signs of behavior
same,"distribution of B cells, T cells, neutrophils, and macrophages in BALF","rats, 0.5, 1.0, and 2.5 mg intratracheally daily for 14 days, FACS",No changes
same,necroscopy and histology of the inspected organs,"rats, day 15, brain, heart, thymus, lungs, spleen, liver, kidneys, gonads",no pathological changes
same,adverse effects in all parameters tested,"rats, intratracheal, up to 2.5 mg daily for 14 days",did not result in any detectable adverse effects
